Columns and labels:
[1] = test system: catalase (CAT); test: CAT activity, HOSE cells; type: cell-based, human; conditions: 24 h, percentage of control cells
Protocol: (§1) Total activity of superoxide dismutase (SOD) was measured in cell lysates with a commercially available kit (R&D Systems Europe, Abingdon, UK), while the activity of catalase (CAT) was estimated by using the OxiSelect Catalase Activity Assay Kit (Cell Biolabs Inc., San Diego, CA, USA). Both assays were performed according to the manufacturer's instructions.

[2] = test system: SKOV-3; test: MTT viability assay, SKOV-3; type: cell-based; conditions: Homo sapiens; for IC50: SK-OV-3, 24 h
Protocol: Cell viability was assessed with the MTT test and with lactate dehydrogenase (LDH) release assay. As per the MTT method, normal and cancer cells were seeded into 96-well plates at high density and allowed to attach overnight. Then they were incubated in a medium containing 1.25 mg/mL of the MTT salt [3-(4,5-dimethylthiazol-2-yl)-2,5-diphenyltetrazolium bromide] for 24 h at 37°C. The generated formazan was solubilized with 20% sodium dodecyl sulphate and 50% N,N-dimethylformamide. Absorbance of the converted dye was recorded at 595 nm with a reference wavelength of 690 nm.
(§2) In order to examine the effect of 3,3′,4,4′-THS on the viability of ovarian cancer cells and to compare its activity with RVT, subconfluent cultures of A2780, OVCAR-3, and SKOV-3 cells were subjected to a wide range of stilbene concentrations (0–500 μM) for 24 h; then MTT and LDH release assays were performed.

[3] = test system: SKOV-3; test: LDH release assay, SKOV-3; type: cell-based; conditions: Homo sapiens; for IC50: SK-OV-3, 24 h, CalcuSyn
Protocol: As per LDH release, the measurements were performed using the commercially available Pierce LDH Cytotoxicity Assay Kit (Pierce Biotechnology, Rockford, IL, USA). In this assay, cells with damaged plasma membranes release LDH into the culture environment; then the enzyme catalyses the conversion of lactate to pyruvate, which is accompanied by a reduction of NAD^+ to NADH. Afterwards, diaphorase uses NADH to reduce a tetrazolium salt to a formazan whose level is proportional to LDH activity. The absorbance emitted by the formazan was monitored at 490 nm with a reference wavelength of 680 nm.
as §2

[4] = test system: HOSE cells; test: ROS production (H2DCFDA), HOSE cells; type: cell-based, human; conditions: 24 h, percentage of control cells
Protocol: ROS production was assessed in cells probed with a fluorescent dye, 2′,7′-dichlorodihydrofluorescein diacetate (H2DCFDA; 5 μM) (Molecular Probes, Eugene, USA) for 45 min at 37°C. Fluorescence intensity in cell lysates was monitored in a Victor2 spectrofluorometer with excitation at 485 nm and emission at 535 nm.

[5] = test system: p38 MAPK; test: p38 MAPK activation (FACE ELISA), HOSE cells; type: cell-based, human; conditions: 24 h, percentage of control cells
Protocol: (§3) Activation of p38 MAPK was examined using the Fast Activated Cell-Based ELISA (FACE) p38 kit (Active Motif) according to the manufacturer's instructions. In brief, cells were fixed with 4% formaldehyde and incubated with a primary antibody that recognizes either phosphorylated p38 or total p38 overnight at 4°C. Then the cells were washed and incubated with a secondary HRP-conjugated antibody for 1 h at room temperature. The color reaction that developed was read using a spectrofluorometer at 450 nm wavelength.
(§4) The results were expressed as a ratio of phosphorylated to total p38 activity.

[6] = test system: superoxide dismutase (SOD); test: SOD activity in cell lysates, OVCAR-3; type: cell-based, human; conditions: 24 h, 10, 50, 100 μM tested
Protocol: as §1

[7] = test system: p38 MAPK; test: p38 MAPK activation (FACE ELISA), HPMCs; type: cell-based, human; conditions: 24 h, percentage of control cells
Protocol: as §3, §4

[8] = test system: SKOV-3 cells; test: Oxidative DNA damage (8-OH-dG immunoassay), SKOV-3; type: cell-based, human; conditions: 24 h, 10, 50, 100 μM tested
Protocol: Oxidative DNA damage was assessed by measuring the 8-OH-dG concentration with a competitive immunoassay (Cell Biolabs Inc.), as per manufacturer's instructions. The efficiency of 8-OH-dG repair was estimated after cell recovery for 24 h in standard growth medium. In order to examine the activity of DNA glycosylase I, reverse transcription PCR was performed. RNA extraction was carried out using the RNA Bee (Tel-Test, Friendswood, Texas, USA) and purified according to the manufacturer's protocol. One microgram of RNA was reverse transcribed into cDNA with random hexamer primers, and cDNA was subjected to PCR. The profile of the replication cycles was denaturation at 94°C for 50 s, annealing at 58°C for 50 s, and polymerization at 72°C for 1 min. In each reaction, the expression of glyceraldehyde-3-phosphate dehydrogenase (GAPDH) served as the internal control. The primers used for PCR were as follows: hOGG1 forward, 5′-[…]-3′; hOGG1 reverse, 5′-TAGCCCGCCCTGTTCTTC-3′ designed to amplify a 551-bp region; GAPDH forward, 5′-CCATGGAGAAGGCTGGGG-3′; and GAPDH reverse 5′-[…]-3′ designed to amplify a 194-bp region (total number of cycles: 28). The PCR products were separated on 3% agarose gels stained with ethidium bromide and then visualized.

[9] = test system: HOSE cells; test: LDH release assay, HOSE cells; type: cell-based, human; conditions: Homo sapiens, 24 h, CalcuSyn
[10] = test system: HOSE cells; test: Cell proliferation (CFDA SE), HOSE cells; type: cell-based, human; conditions: 24 h, percentage of control cells
Protocol: Cell proliferative potential was determined using Cell Proliferation Kit I (PromoKine, Heidelberg, Germany) according to the manufacturer's instructions. In brief, cells were probed for 15 min with 5-(and 6)-carboxyfluorescein diacetate, a succinimidyl ester (CFDA SE; 2 μM) which diffuses into cells, covalently binds to proteins, and becomes fluorescent upon its hydrolysis by intracellular esterases. The fluorescence emitted by the cells (the dye is inherited by the daughter cells through successive divisions) was recorded using a Victor2 spectrofluorometer (Perkin-Elmer, Turku, Finland) with excitation at 435 nm and emission at 535 nm.

[11] = test system: p38 MAPK; test: p38 MAPK activation (FACE ELISA), SKOV-3; type: cell-based, human; conditions: 24 h, 10, 50, 100 μM tested
Protocol: as §3, §4

[12] = test system: A2780 cells; test: Apoptosis (Hoechst 33258), A2780; type: cell-based, human; conditions: 24 h, 10, 50, 100 μM tested
Protocol: Identification of apoptosis was based on the presence of DNA condensation in cells stained with a fluorescent dye, Hoechst 33258 (Molecular Probes, Eugene, OR). Cells were grown on Lab-Tek Chamber Slides (Nunc, Roskilde, Denmark), fixed with 4% formaldehyde for 10 min and washed twice with PBS. Then the cells were incubated with Hoechst 33258 (0.1 μg/mL) for 5 min in the dark. After washing with PBS, stained nuclei were observed and counted under a Zeiss Axio Observer D1 fluorescence microscope (Carl Zeiss, Jena, Germany). The activity of caspases 3, 8, and 9 was quantified in the cell lysates using specific colorimetric kits (Abcam, Cambridge, UK) according to the manufacturer's instructions.

[13] = SK-OV-3, 10 μM, 24 h, percentage of control cells
[14] = SK-OV-3, 50 μM, 24 h, percentage of control cells
[15] = SK-OV-3, 100 μM, 24 h, percentage of control cells
[16] = CalcuSyn, read-out: IC50, MTT assay

Structure (SMILES)	CAT ([1]; 10 μM)	CAT ([1]; 50 μM)	CAT ([1]; 100 μM)	IC50 [2, 16]	IC50 [3]	ROS ([4]; 10 μM)	ROS ([4]; 50 μM)	ROS ([4]; 100 μM)	p38 MAPK ([5]; 10 μM)	p38 MAPK ([5]; 50 μM)	p38 MAPK ([5]; 100 μM)	SOD activity, effect in words [6]	p38 MAPK ([7]; 10 μM)	p38 MAPK ([7]; 50 μM)	p38 MAPK ([7]; 100 μM)	concentration of 8-OH-dG (oxidative DNA damage), effect in words [8]	IC50 [9]	Proliferation ([10]; 10 μM)	Proliferation ([10]; 50 μM)	Proliferation ([10]; 100 μM)	other results
Oc1ccc(/C=C/c2ccc(O)c(O)c2)cc1O [3,3′,4,4′-THS, 3,3′,4,4′-tetrahydroxy-trans-stilbene]	132 ± 1^∗# %	163 ± 4^∗# %	162 ± 1^∗# %	8 µM	10 µM	75 ± 4^∗# %	72 ± 3^∗# %	99 ± 4 %	106 ± 5%	104 ± 4%	100 ± 3%	increased SOD at 10 μM and decreased the activity of the enzyme at 50 and 100 μM	82 ± 3^∗# %	81 ± 6^∗# %	104 ± 2%	increasing the concentration of 8-OH-dG in the OVCAR-3 and SKOV-3 cells starting from a dose of 10 μM	532 µM	116 ± 2^∗ %	103 ± 1%	99 ± 5%	viability at 10 µM [2, 13]: 40 ± 2%; viability at 50 µM [2, 14]: 39 ± 4%; viability at 100 µM [2, 15]: 35 ± 2%; IC50 ([2]; read-out: IC50 (range over MTT and LDH release assays)): 8 to 10 µM; viability at 10 µM [3, 13]: 50 ± 2%; viability at 50 µM [3, 14]: 32 ± 12%; viability at 100 µM [3, 15]: 24 ± 7%; p38 MAPK activity (phosphorylated/total), effect in words [11]: exerted upregulatory activity at 50 and 100 μM; incidence of apoptosis (rise in percentage of death cells), effect in words [12]: evident starting from the lowest concentration of 10 μM
Oc1ccc(/C=C/c2cc(O)cc(O)c2)cc1 [RVT, 3,4′,5-trihydroxy-trans-stilbene, reference compound]	121 ± 6^∗ %	119 ± 4^∗ %	121 ± 6^∗ %	380 µM	346 µM	103 ± 3%	105 ± 4%	121 ± 7^∗ %	103 ± 5%	107 ± 10%	108 ± 11%	upregulated activity of the enzyme	113 ± 16%	103 ± 2%	105 ± 7%	induced DNA injury in A2780 and SKOV-3 at 50 and 100 μM	421 µM	103 ± 4%	102 ± 1%	104 ± 2%	p38 MAPK activity (phosphorylated/total), effect in words [11]: failed to activate p38 MAPK; incidence of apoptosis (rise in percentage of death cells), effect in words [12]: exhibiting its impact at concentrations of 50 and 100 μM for the A2780 and SKOV-3 cells
